How the values were obtained:
[1] = Selectivity index, ratio of CC50 for African green monkey Vero cells to IC50 for antileishmanial activity against Leishmania donovani MHOM/IN/80/Dd8 amastigotes harboring luciferase reporter gene; format: toxicity; settings: read-out: Ratio CC50/IC50
[2] = Selectivity index, ratio of CC50 for mouse J774 cells to IC50 for antileishmanial activity against Leishmania donovani MHOM/IN/80/Dd8 amastigotes harboring luciferase reporter gene; format: toxicity; settings: read-out: Ratio CC50/IC50
Leishmania donovani [3] = assay: Antileishmanial activity against Leishmania donovani MHOM/IN/80/Dd8 amastigotes harboring luciferase reporter gene infected in mouse J774 cells at 25 uM after 72 hrs by Steady-Glo luminescence assay relative to control; format: functional; settings: MHOM/IN/80/Dd8, J774, 72 h
[4] = Cytotoxicity against African green monkey Vero cells assessed as cell viability at 100 uM by MTT assay relative to control; format: cell-based; settings: chlorocebus sabaeus, read-out: Activity
Leishmania donovani [5] = assay: Antileishmanial activity against Leishmania donovani MHOM/IN/80/Dd8 amastigotes harboring luciferase reporter gene infected in mouse J774 cells at 50 uM after 72 hrs by Steady-Glo luminescence assay relative to control; format: functional; settings: MHOM/IN/80/Dd8, J774, 72 h
[6] = Cytotoxicity against African green monkey Vero cells assessed as cell viability at 25 uM by MTT assay relative to control; format: cell-based; settings: chlorocebus sabaeus, read-out: Activity
Leishmania donovani [7] = assay: Antileishmanial activity against promastigote stage of Leishmania donovani MHOM/IN/80/Dd8 harboring luciferase reporter gene at 25 uM after 48 hrs by Steady-Glo luminescence assay relative to control; format: functional; settings: MHOM/IN/80/Dd8, 48 h
Leishmania donovani [8] = assay: Antileishmanial activity against promastigote stage of Leishmania donovani MHOM/IN/80/Dd8 harboring luciferase reporter gene at 100 uM after 48 hrs by Steady-Glo luminescence assay relative to control; format: functional; settings: MHOM/IN/80/Dd8, 48 h
Leishmania donovani [9] = assay: Antileishmanial activity against Leishmania donovani MHOM/IN/80/Dd8 amastigotes harboring luciferase reporter gene infected in mouse J774 cells at 100 uM after 72 hrs by Steady-Glo luminescence assay relative to control; format: functional; settings: MHOM/IN/80/Dd8, J774, 72 h
[10] = Cytotoxicity against African green monkey Vero cells assessed as cell viability at 50 uM by MTT assay relative to control; format: cell-based; settings: chlorocebus sabaeus, read-out: Activity
Leishmania donovani [11] = assay: Antileishmanial activity against promastigote stage of Leishmania donovani MHOM/IN/80/Dd8 harboring luciferase reporter gene at 50 uM after 48 hrs by Steady-Glo luminescence assay relative to control; format: functional; settings: MHOM/IN/80/Dd8, 48 h
Leishmania donovani [12] = assay: Inhibition of ubiquinol cytochrome c reductase in Leishmania donovani promastigotes mitochondria at 2 uM using decylubiquinol as substrate in presence of cytochrome c relative to control
Leishmania donovani [13] = assay: Induction of mitochondrial dysfunction in Leishmania donovani promastigotes assessed as reduction in mitochondrial membrane potential at 50 uM after 15 mins by JC-1 staining-based flow cytometric analysis (reference value: 7.73%); format: functional; set-up: scale not given: the % may be the effect or the level left

Question: What does the source list for `CCCCCCCCCCCCCCCCOP(=O)([O-])OCC[N+](C)(C)C` [MILTEFOSINE]?
Answer: selectivity ratio [1]: 5.3; selectivity ratio [2]: 5.8

Question: Which results are given for `CSc1ccc(C(=O)C(c2ccc(Cl)c(Cl)c2)C(NC(=O)c2ccccc2)c2cccc3ccccc23)cc1` (configuration not stated)?
Answer: inhibition at 25 µM (Leishmania donovani [3]): 43.1%; viability at 100 µM [4]: 89.2%; inhibition at 50 µM (Leishmania donovani [5]): 69.4%; viability at 25 µM [6]: 98.2%; inhibition at 25 µM (Leishmania donovani [7]): 33.4%; inhibition at 100 µM (Leishmania donovani [8]): 45.6%; inhibition at 100 µM (Leishmania donovani [9]): 72.3%; viability at 50 µM [10]: 93.9%; inhibition at 50 µM (Leishmania donovani [11]): 42.1%

Question: Which inhibition (Leishmania donovani [12]) does the source give for `CCCCCCC1C(=O)O[C@H](C)[C@H](NC(=O)c2cccc(NC=O)c2O)C(=O)O[C@@H](C)[C@@H]1OC(=O)CC(C)C` (some centres not stated) here?
Answer: > 93%

Question: With `CSc1ccc(C(=O)C(c2ccc(Cl)c(Cl)c2)C(NC(=O)c2ccccc2)c2cc3ccccc3s2)cc1` (configuration not stated) as the compound, how does the inhibition at 25 µM (Leishmania donovani [3]) read?
Answer: 11.8%

Question: What about the viability at 100 µM [4] of the same compound?
Answer: 88%

Question: And the inhibition at 50 µM (Leishmania donovani [5])?
Answer: 16.5%

Question: And the viability at 25 µM [6]?
Answer: 97.2%

Question: And the inhibition at 25 µM (Leishmania donovani [7])?
Answer: 22.4%

Question: And the inhibition at 100 µM (Leishmania donovani [8])?
Answer: 33.2%

Question: What about the inhibition at 100 µM (Leishmania donovani [9]) of the same compound?
Answer: 18.3%

Question: What about the viability at 50 µM [10] of the same compound?
Answer: 92.4%

Question: What about the inhibition at 50 µM (Leishmania donovani [11]) of the same compound?
Answer: 30.5%

Question: What does the source list for `CSc1ccc(C(=O)C(c2ccc(Cl)c(Cl)c2)C(NC(=O)c2cccc(C)c2)c2cc3ccccc3s2)cc1` (configuration not stated)?
Answer: inhibition at 25 µM (Leishmania donovani [3]): 12%; viability at 100 µM [4]: 87.3%; inhibition at 50 µM (Leishmania donovani [5]): 21.9%; viability at 25 µM [6]: 92.1%; inhibition at 25 µM (Leishmania donovani [7]): 24.3%; inhibition at 100 µM (Leishmania donovani [8]): 35.1%; inhibition at 100 µM (Leishmania donovani [9]): 27.2%; viability at 50 µM [10]: 90.6%; inhibition at 50 µM (Leishmania donovani [11]): 30.4%

Question: With `CSc1ccc(C(=O)C(c2ccc(Cl)c(Cl)c2)C(NC(=O)c2ccc(Br)cc2)c2cccc3ccccc23)cc1` (configuration not stated) as the compound, how does the inhibition at 25 µM (Leishmania donovani [3]) read?
Answer: 21.2%

Question: What about the viability at 100 µM [4] of the same compound?
Answer: 88.5%

Question: What about the inhibition at 50 µM (Leishmania donovani [5]) of the same compound?
Answer: 38.3%

Question: What about the viability at 25 µM [6] of the same compound?
Answer: 92.8%

Question: What about the inhibition at 25 µM (Leishmania donovani [7]) of the same compound?
Answer: 56.3%

Question: And the inhibition at 100 µM (Leishmania donovani [8])?
Answer: 77.2%

Question: What about the inhibition at 100 µM (Leishmania donovani [9]) of the same compound?
Answer: 39.2%

Question: What about the viability at 50 µM [10] of the same compound?
Answer: 90.2%

Question: And the inhibition at 50 µM (Leishmania donovani [11])?
Answer: 74.9%

Question: Which results are given for `CSc1ccc(C(=O)C(c2ccc(Cl)c(Cl)c2)C(NC(=O)c2cccc(C)c2)c2cccc3ccccc23)cc1` (configuration not stated)?
Answer: inhibition at 25 µM (Leishmania donovani [3]): 5.9%; viability at 100 µM [4]: 87.6%; inhibition at 50 µM (Leishmania donovani [5]): 14.5%; viability at 25 µM [6]: 95.8%; inhibition at 25 µM (Leishmania donovani [7]): 27.2%; inhibition at 100 µM (Leishmania donovani [8]): 36.9%; inhibition at 100 µM (Leishmania donovani [9]): 19.3%; viability at 50 µM [10]: 90.7%; inhibition at 50 µM (Leishmania donovani [11]): 36.4%

Question: Which inhibition at 25 µM (Leishmania donovani [3]) does the source give for `CCOC(=O)C(C(=O)c1ccc(OC)cc1)C(NC(C)=O)c1ccc(C(C)C)cc1` (configuration not stated) here?
Answer: 29.4%

Question: What about the viability at 100 µM [4] of the same compound?
Answer: 90.4%

Question: What about the inhibition at 50 µM (Leishmania donovani [5]) of the same compound?
Answer: 44.4%

Question: And the viability at 25 µM [6]?
Answer: 98.8%

Question: What about the inhibition at 25 µM (Leishmania donovani [7]) of the same compound?
Answer: 30.8%

Question: And the inhibition at 100 µM (Leishmania donovani [8])?
Answer: 34%

Question: What about the inhibition at 100 µM (Leishmania donovani [9]) of the same compound?
Answer: 55.3%

Question: What about the viability at 50 µM [10] of the same compound?
Answer: 96.5%

Question: And the inhibition at 50 µM (Leishmania donovani [11])?
Answer: 33.5%

Question: For `N#CC(C#N)=NNc1cccc(Cl)c1` [CARBONYL CYANIDE M-CHLOROPHENYLHYDRAZONE], which Activity (Leishmania donovani [13]) is on record?
Answer: 94.26%

Question: With `CSc1ccc(C(=O)/C(=C/c2ccccn2)c2ccc(Cl)c(Cl)c2)cc1` as the compound, how does the inhibition at 25 µM (Leishmania donovani [3]) read?
Answer: 17.5%

Question: What about the viability at 100 µM [4] of the same compound?
Answer: 89.6%

Question: What about the inhibition at 50 µM (Leishmania donovani [5]) of the same compound?
Answer: 36.2%

Question: And the viability at 25 µM [6]?
Answer: 97.9%

Question: What about the inhibition at 25 µM (Leishmania donovani [7]) of the same compound?
Answer: 53.4%

Question: And the inhibition at 100 µM (Leishmania donovani [8])?
Answer: 76.6%

Question: What about the inhibition at 100 µM (Leishmania donovani [9]) of the same compound?
Answer: 38.5%

Question: And the viability at 50 µM [10]?
Answer: 93.6%

Question: What about the inhibition at 50 µM (Leishmania donovani [11]) of the same compound?
Answer: 74.6%
